These results are taken from ChEMBL document CHEMBL4814012, “Synthesis and structure-activity relationships of 5-phenyloxazole-2-carboxylic acid derivatives as novel inhibitors of tubulin polymerization” (Bioorg Med Chem Lett, 2021).

Some results are limits rather than exact numbers.

Data set [1] deals with A549. Briefly: Cytotoxicity against human A549 cells assessed as reduction in cell growth by CCK8 assay. Format: functional, cell-based. A general note: Formazan colour is commonly taken as a measure of viable cells.
The next data set concerns HepG2. The experiment in a line: Cytotoxicity against human HepG2 cells assessed as reduction in cell growth by CCK8 assay. Format: functional, cell-based.
A further data set relates to HeLa. Briefly: Cytotoxicity against human HeLa cells assessed as reduction in cell growth by CCK8 assay. It is filed as functional, cell-based.
Data set [2] can be described thus: Selectivity ratio of IC50 for human BEAS-2B cells to IC50 for human A549 cells. It is filed as toxicity. Particulars: BEAS-2B cells versus A549 cells, read-out: Ratio IC50.
The next data set addresses Tubulin. The experiment in a line: (§1) Inhibition of tubulin polymerization (unknown origin) measured every 30 secs for 90 mins. Format: protein-complex assay, Homo sapiens.
In another data set the test system is BEAS-2B. Briefly: Cytotoxicity against human BEAS-2B cells assessed as reduction in cell growth by CCK8 assay. It is filed as cell-based.
The target of data set [3] is T1, Tubulin (Homo sapiens) (UniProt P68371+Q9H4B7+P0DPH7+P68366+Q13509+Q71U36+P04350+Q3ZCM7+P07437+P68363+Q9BQE3+Q6PEY2+Q13885+Q9BVA1+Q9BUF5). The experiment in a line: Inhibition of tubulin polymerization (unknown origin) at 40 uM measured every 30 secs for 90 mins relative to control. Format: protein-complex assay.
Data set [4] deals with A549. The experiment in a line: Induction of cell cycle arrest in human A549 cells assessed as accumulation at S phase at 1 uM after 24 hrs by flow cytometric analysis (reference value: 15.44%). It is filed as functional. Background: Flow cytometry measures light scatter and fluorescence of single cells or particles in a stream.
The subject of data set [5] is A549. Briefly: Induction of cell cycle arrest in human A549 cells assessed as accumulation at G2/M phase at 1 uM after 24 hrs by flow cytometric analysis (reference value: 14.08%). It is filed as functional.
The target of data set [6] is T1, Tubulin (Homo sapiens). Described as §1. Format: protein-complex assay.
For data set [7], the system named is A549. Briefly: Induction of cell cycle arrest in human A549 cells assessed as accumulation at G1 phase at 1 uM after 24 hrs by flow cytometric analysis (reference value: 70.48%). Format: functional.

The IC50 is the point on the concentration scale where inhibition reaches its midpoint. Consider `COc1ccc(NC(=O)c2ncc(-c3ccc(O)cc3)o2)cc1`, for which the IC50 in the data set on A549 [1] worked out at 11.3 µM; with HepG2, 17.3 µM; with HeLa it was 9.67 µM.
In the same order, the values of `O=C(Nc1cccc(O)c1)c1ncc(-c2ccccc2)o1` are more than 30 µM, more than 30 µM and more than 30 µM.
In the same order, the values of `CN(C)c1ccc(NC(=O)c2ncc(-c3ccccc3)o2)cc1` are more than 30 µM, more than 30 µM and more than 30 µM.
In the same order, the values of `Cc1ccc(NC(=O)c2ncc(-c3ccccc3)o2)cc1` are more than 30 µM, more than 30 µM and more than 30 µM.
For the compound `CCN(CC)c1ccc(NC(=O)c2ncc(-c3ccccc3)o2)cc1`, the concentration for half-maximal inhibition (IC50) with A549 [1], in the data set on HepG2 and in the data set on HeLa was more than 30 µM throughout.
For the compound `COc1ccc(C(=O)c2ncc(-c3ccc(OC)cc3)o2)cc1`, the IC50 in the data set with A549 [1], in the data set with HepG2 and with HeLa was more than 30 µM throughout.
For orientation: inhibition means the drop in the measured response relative to a control, in per cent. For `COc1ccc(-c2cnc(C(=O)Nc3ccc(O)cc3)o2)cc1`, the 50% inhibitory concentration (IC50) in the data set on A549 [1] was 1.93 µM; in the data set with HepG2 it was 2.76 µM; in the data set on HeLa, 1.44 µM; at Tubulin, more than 40 µM; in the data set on BEAS-2B it was 4.58 µM. Moreover, in data set [2], the selectivity ratio was 2.37. On Tubulin (Homo sapiens) [3], this compound gave an inhibition of 27%.
For the compound `O=C(c1ncc(-c2ccccc2)o1)N1CCN(c2ccccc2)CC1`, the concentration for half-maximal inhibition (IC50) with A549 [1], with HepG2 and with HeLa was more than 30 µM each time.
Take `COc1cc(-c2cnc(C(=O)Nc3ccccc3)o2)cc(OC)c1OC`: the IC50 was more than 30 µM in the data set with A549 [1], more than 30 µM in the data set on HepG2 and 27.3 µM in the data set on HeLa.
On to `O=C(c1ccc(O)cc1)c1ncc(-c2ccccc2)o1`, for which the IC50 in the data set on A549 [1], with HepG2 and in the data set on HeLa was more than 30 µM each time.
On to `COc1ccc(-c2cnc(C(=O)c3ccccc3)o2)cc1`, for which the IC50 with A549 [1], in the data set on HepG2 and in the data set on HeLa was more than 30 µM throughout.
In the case of `COc1ccc(-c2cnc(C(=O)Nc3ccc(O)cc3)o2)cc1F`, the IC50 with A549 [1] was 1.2 µM; in the data set with HepG2 it was 1.81 µM; in the data set with HeLa, 1.12 µM; on Tubulin it was more than 40 µM; in the data set with BEAS-2B, 2.6 µM. The selectivity ratio in [2] amounted to 2.17. The inhibition at Tubulin (Homo sapiens) [3] turned out to be 46%.
Consider `O=C(Nc1ccc(O)cc1)c1ncc(-c2ccc(F)cc2)o1`, for which the half-maximal inhibitory concentration (IC50) in the data set with A549 [1], in the data set on HepG2 and with HeLa was more than 30 µM in each case.
For the compound `COc1cc(C(=O)c2ncc(-c3ccccc3)o2)cc(OC)c1OC`, the 50% inhibitory concentration (IC50) in the data set on A549 [1], in the data set with HepG2 and in the data set on HeLa was more than 30 µM each time.
With `O=C(Nc1ccc(O)cc1)c1ncc(-c2ccccc2)o1`, the Activity in the data set on A549 [4] is on record as 13.05%; in the data set on A549 [5] it was 85.81%; in the data set with A549 [7], 1.14%. Further, the IC50 with A549 [1] came to 1.08 µM; in the data set with HepG2 it was 1.27 µM; in the data set on HeLa, 0.78 µM; on Tubulin, 16.7 µM; in the data set on BEAS-2B, 3.36 µM. For the same compound, in data set [2], the selectivity ratio is 3.11. The inhibition result on Tubulin (Homo sapiens) [6] was “Dose-Dependent Effect”; against Tubulin (Homo sapiens) [3], 91%.
For `O=C(Nc1ccc(Cl)cc1)c1ncc(-c2ccccc2)o1`, the IC50 in the data set on A549 [1], with HepG2 and with HeLa was more than 30 µM in each case.
For `COc1cc(-c2cnc(C(=O)c3ccccc3)o2)cc(OC)c1OC`, the concentration for half-maximal inhibition (IC50) in the data set on A549 [1], in the data set on HepG2 and with HeLa was more than 30 µM in each case.
On to `O=C(c1ncc(-c2ccccc2)o1)N1CCN(c2ccc(Cl)cc2)CC1`, for which the IC50 with A549 [1], in the data set on HepG2 and with HeLa was more than 30 µM each time.
Take `COc1cc2c(c(OC)c1OC)-c1ccc(OC)c(=O)cc1[C@@H](NC(C)=O)CC2` [COLCHICINE]: the IC50 with A549 [1] was found to be 0.053 µM; in the data set with BEAS-2B, 0.016 µM.
With `COc1cccc(-c2cnc(C(=O)c3ccccc3)o2)c1`, the IC50 in the data set on A549 [1], in the data set with HepG2 and in the data set on HeLa was more than 30 µM in each case.
With `COc1ccc(NC(=O)c2ncc(-c3ccccc3)o2)cc1`, the IC50 in the data set with A549 [1], in the data set with HepG2 and with HeLa was more than 30 µM throughout.
Turning to `COc1cc(-c2cnc(C(=O)Nc3ccc([N+](=O)[O-])cc3)o2)cc(OC)c1OC`, the IC50 with A549 [1], in the data set with HepG2 and in the data set on HeLa was more than 30 µM throughout.
Take `COc1cc(-c2cnc(C(=O)Nc3ccc(F)cc3)o2)cc(OC)c1OC`: the IC50 in the data set with A549 [1], in the data set with HepG2 and in the data set with HeLa was more than 30 µM throughout.
Turning to `COc1ccc(NC(=O)c2ncc(-c3cc(OC)c(OC)c(OC)c3)o2)cc1`, the half-inhibitory concentration (IC50) in the data set with A549 [1] is 25.8 µM; in the data set with HepG2, more than 30 µM; in the data set on HeLa, 20.5 µM.
In the same order, the values of `COc1cc(-c2cnc(C(=O)Nc3ccc(O)cc3)o2)cc(OC)c1OC` are more than 30 µM, more than 30 µM and more than 30 µM.
